Results from patent US8569472B2, “Efficient cell culture system for hepatitis C virus genotype 6A” (priority 2007, dated 2013).

Tested on: JFH1-based recombinants of genotypes 1a, 1b, 2a, 2b, and 6a
Assay type: cell-based, hepatitis C virus
Conditions: 500 IU/mL interferon-α2b, 20 μM ribavirin or 50 μM amantadine; for decrease in supernatant HCV RNA titers / decrease in the number of infected cells: 72 hrs, Huh7.5 cultures infected with genotype 1a/1b, 2a/2b and 6a recombinants

Row | SMILES | antiviral effect of treatment (infected cells and supernatant HCV RNA titers) | decrease in supernatant HCV RNA titers | decrease in the number of infected cells
1 | NC(=O)c1ncn([C@@H]2O[C@H](CO)[C@@H](O)[C@H]2O)n1 [ribavirin] | no apparent effect | did not decrease | did not decrease
2 | NC12CC3CC(CC(C3)C1)C2 [amantadine] | no apparent effect | did not decrease | did not decrease
